From ChEMBL document CHEMBL1201862, “PubChem BioAssay data set” (2004)
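Exposure lasted 48 hours, with cells grown in 96-well plates and compounds tested at five concentrations. GI50: concentration for 50% inhibition of growth.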 Calls of active or inactive are those of the source. Cut-off read from the data, not from the text of the source: active = GI50 up to about 1.1 µM and inactive = higher.

Legend:
Experiment in all cases: DTP human tumour cell line panel, 48 h
UO-31 = tested on: UO-31
EKVX = tested on: EKVX
HOP-62 = tested on: HOP-62
RXF 393 = tested on: RXF 393
CAKI-1 = tested on: CAKI-1
SF-268 = tested on: SF-268
OVCAR-5 = tested on: OVCAR-5
COLO 205 = tested on: COLO 205
ACHN = tested on: ACHN
NCI-H522 = tested on: NCI-H522
HCT-15 = tested on: HCT-15
NCI/ADR-RES = tested on: NCI/ADR-RES
HCT-116 = tested on: HCT-116
A498 = tested on: A498
NCI-H226 = tested on: NCI-H226
786-0 = tested on: 786-0
IGROV-1 = tested on: IGROV-1
MOLT-4 = tested on: MOLT-4
MDA-MB-435 = tested on: MDA-MB-435
UACC-62 = tested on: UACC-62

| SMILES | GI50 (UO-31) | GI50 (EKVX) | GI50 (HOP-62) | GI50 (RXF 393) | GI50 (CAKI-1) | GI50 (SF-268) | GI50 (OVCAR-5) | GI50 (COLO 205) | GI50 (ACHN) | GI50 (NCI-H522) | GI50 (HCT-15) [µM] | GI50 (NCI/ADR-RES) | GI50 (HCT-116) | GI50 (A498) | GI50 (NCI-H226) | GI50 (786-0) | GI50 (IGROV-1) | GI50 (MOLT-4) | GI50 (MDA-MB-435) | GI50 (UACC-62) |
| --- | --- | --- | --- | --- | --- | --- | --- | --- | --- | --- | --- | --- | --- | --- | --- | --- | --- | --- | --- | --- |
| CCCCCCCCCC(=O)NCCc1c[nH]c2ccc(OC)cc12 | 12.7 µM (inactive) | 28 µM (inactive) | 16.4 µM (inactive) | 19 µM (inactive) | 25.4 µM (inactive) | 17.7 µM (inactive) | 23.9 µM (inactive) | 23.8 µM (inactive) | 16.7 µM (inactive) | 16 µM (inactive) | 19.1 | 19.2 µM (inactive) | 21.4 µM (inactive) | 16.3 µM (inactive) | 19.9 µM (inactive) | 19.2 µM (inactive) | 14.9 µM (inactive) | 64.7 µM (inactive) | 24.5 µM (inactive) | 16.3 µM (inactive) |
| NC(=O)CO/N=C1/C(=C2/C(=O)Nc3ccccc32)Nc2ccccc21 | 1.77 µM (inactive) | > 100 µM (inactive) | 22.6 µM (inactive) | 0.491 µM (active) | 0.247 µM (active) | > 100 µM (inactive) | > 100 µM (inactive) | 1.86 µM (inactive) | 3.48 µM (inactive) | > 100 µM (inactive) | 2 | > 100 µM (inactive) | 0.755 µM (active) | > 100 µM (inactive) | 4.35 µM (inactive) | > 100 µM (inactive) | 0.395 µM (active) | 3.44 µM (inactive) | 21.1 µM (inactive) | 5.87 µM (inactive) |
| Cc1ccc(N2C=Nn3c(nc4sc5c(c4c3=O)CCCC5)C2)cc1 | > 100 µM (inactive) | 80 µM (inactive) | 21.2 µM (inactive) | 24.8 µM (inactive) | 46 µM (inactive) | 83 µM (inactive) | 62.5 µM (inactive) | 67.8 µM (inactive) | 46.5 µM (inactive) | 39.1 µM (inactive) | 48.2 | 70.3 µM (inactive) | 41.2 µM (inactive) | 54.5 µM (inactive) | 55 µM (inactive) | 35.7 µM (inactive) | 88.3 µM (inactive) | > 100 µM (inactive) | 99.3 µM (inactive) | > 100 µM (inactive) |
| O=C1C[C@H](COCc2ccccc2)NC(=O)C[C@H](COCc2ccccc2)NC(=O)C[C@H](COCc2ccccc2)N1 | > 100 µM (inactive) | > 100 µM (inactive) | 17.9 µM (inactive) | 11.5 µM (inactive) | > 100 µM (inactive) | 40.9 µM (inactive) | > 100 µM (inactive) | > 100 µM (inactive) | 16.4 µM (inactive) | > 100 µM (inactive) | > 100 | > 100 µM (inactive) | 32.4 µM (inactive) | 12 µM (inactive) | > 100 µM (inactive) | 16.9 µM (inactive) | > 100 µM (inactive) | 5.9 µM (inactive) | > 100 µM (inactive) | > 100 µM (inactive) |
| CN(C(=O)Cc1ccc(Cl)c(Cl)c1)[C@@H]1CCCC[C@H]1[N+]1(C)CC=CC1 | > 100 µM (inactive) | > 100 µM (inactive) | > 100 µM (inactive) | > 100 µM (inactive) | > 100 µM (inactive) | > 100 µM (inactive) | > 100 µM (inactive) | > 100 µM (inactive) | > 100 µM (inactive) | > 100 µM (inactive) | > 100 | > 100 µM (inactive) | > 100 µM (inactive) | > 100 µM (inactive) | > 100 µM (inactive) | > 100 µM (inactive) | > 100 µM (inactive) | > 100 µM (inactive) | > 100 µM (inactive) | > 100 µM (inactive) |
| CCOC(=O)[C@H]1C[C@]23CN(C(=O)OC(C)(C)C)CC[C@H]2CCC2(SCCCS2)[C@@H]3N1C | 37.8 µM (inactive) | 27.3 µM (inactive) | 39.9 µM (inactive) | 33.8 µM (inactive) | 33.8 µM (inactive) | 50.4 µM (inactive) | 50.5 µM (inactive) | 28.2 µM (inactive) | 40.9 µM (inactive) | 27.5 µM (inactive) | 38.1 | 27.2 µM (inactive) | 31.8 µM (inactive) | 52.2 µM (inactive) | 29.6 µM (inactive) | 34.5 µM (inactive) | 49.9 µM (inactive) | 24.3 µM (inactive) | 37.7 µM (inactive) | 40.5 µM (inactive) |
| CSCCCNC(=O)c1csc([C@@H](CSC)NC(=O)CCNC(=O)[C@@H](NC(=O)OCC(Br)(Br)Br)C(C)O)n1 (stereo not given in full) | > 100 µM (inactive) | 75.5 µM (inactive) | > 100 µM (inactive) | > 100 µM (inactive) | > 100 µM (inactive) | > 100 µM (inactive) | > 100 µM (inactive) | > 100 µM (inactive) | > 100 µM (inactive) | > 100 µM (inactive) | > 100 | > 100 µM (inactive) | > 100 µM (inactive) | > 100 µM (inactive) | > 100 µM (inactive) | > 100 µM (inactive) | > 100 µM (inactive) | > 100 µM (inactive) | > 100 µM (inactive) | > 100 µM (inactive) |
| CN(C)c1ccc(/C=C2\C[C@H]3[C@@H]4CC=C5C[C@@H](N6CCCC6)CC[C@]5(C)[C@H]4CC[C@]3(C)[C@H]2O)cc1 | 0.838 µM (active) | 1.83 µM (inactive) | 1.71 µM (inactive) | 0.966 µM (active) | 1.16 µM (inactive) | 0.989 µM (active) | 3.99 µM (inactive) | 1.52 µM (inactive) | 0.873 µM (active) | 1.11 µM (active) | 1.57 | 1.62 µM (inactive) | 0.897 µM (active) | 1.01 µM (active) | 0.813 µM (active) | 0.659 µM (active) | 0.989 µM (active) | 1.82 µM (inactive) | 1.35 µM (inactive) | 0.871 µM (active) |
| Cn1c(=O)cc(Nc2ccc(N)cc2)[nH]c1=O | > 100 µM (inactive) | > 100 µM (inactive) | > 100 µM (inactive) | > 100 µM (inactive) | > 100 µM (inactive) | > 100 µM (inactive) | > 100 µM (inactive) | > 100 µM (inactive) | > 100 µM (inactive) | > 100 µM (inactive) | > 100 | > 100 µM (inactive) | > 100 µM (inactive) | > 100 µM (inactive) | > 100 µM (inactive) | > 100 µM (inactive) | > 100 µM (inactive) | > 100 µM (inactive) | > 100 µM (inactive) | > 100 µM (inactive) |
